Where a name gives a salt, the structure may show the parent alone.
Key:
[1] = tested on: Litomosoides carinii; test: Filaricidal activity in cotton rats infected with Litomosoides carinii; assay type: in vivo, Litomosoides carinii in cotton rats (Sigmodon hispidus); settings: s.c., treated 14 weeks after infection, dissected 42 days after treatment; for ED90: Litomosoides carinii, sc, 1008 h, read-out: ED90 (dosage at which 90% of the worms removed from the pleural cavity are dead)
Method: (§1) The filaricidal activity of the compounds of formula I can be determined, for example, on cotton rats (Sigmodon hispidus) which have been infected with Litomosoides carinii. The infection with L. carinii is transmitted by the blood-sucking mite Bdellonyssus bacoti in which the development of the microfilaria to infectious larvae takes place. The cotton rats are infected by exposing them to bites of infected mites. 14 weeks after the infection groups of 2-4 animals are treated subcutaneously with the compound to be tested. 42 days after treatment with the compound to be tested the experimental animals are dissected, whereby the adult filaria are removed from the pleural cavity. Living and dead or encapsulated worms are separated from one another and weighed. The filaricidal activity is expressed as the percentage proportion of dead macrofilaria per treatment group. The ED90 is then determined by means of […] analysis using the values from different dosage groups. The ED90 is that dosage at which 90% of the worms removed from the pleural cavity are dead. In the following Table there are compiled the results which have been obtained in the previously described test with representative members of the class of compound defined by general formula I. Moreover, the Table contains data concerning the acute toxicity of some of these compounds in mg per kg in the case of single oral administration to mice.

[2] = Acute toxicity, single oral administration to mice; settings: mouse, in vivo, p.o.
Method: as §1

| SMILES | ED90 [1] [mg/kg] | LD50 [2] [mg/kg] | ED90 (dosage at which 90% of the worms removed from the pleural cavity are dead) [1] [mg/kg] |
| --- | --- | --- | --- |
| CCc1n(N=Cc2ccc(N(C)C)cc2)cc[n+]1N=Cc1ccc([N+](=O)[O-])cc1 | < 1 | – | – |
| CCc1n(N=Cc2ccc(N(C)C)cc2)cc[n+]1N=Cc1ccc(N(C)C)cc1 [1,3-bis[[(p-dimethylamino)benzylidene]amino]-2-ethylimidazolium acetate] | 0.25 | – | – |
| CCc1n(N=Cc2ccc(N(C)C)c3ccccc23)cc[n+]1N=Cc1ccc(N(C)C)c2ccccc12.[Cl-] [1,3-bis[[[4-(dimethylamino)-1-naphthyl]methylidene]amino]-2-ethyl-imidazolium chloride] | 3 | 312 to 625 | – |
| CCc1n(N=Cc2ccc(N(C)C)cc2)cc[n+]1N=Cc1ccc(N(C)C)cc1.[Cl-] [1,3-bis[[p-(dimethyl-amino)benzylidene]amino]-2-ethylimidazolium chloride] | 0.4 | 62.5 to 125 | – |
| CCCc1n(N=Cc2ccc(N(C)C)cc2)cc[n+]1N=Cc1ccc(N(C)C)cc1.[Cl-] [1,3-bis[[p-(dimethylamino)benzylidene]amino]-2-propyl-imidazolium chloride] | < 0.25 | 62.5 to 125 | – |
| CCc1n(N=Cc2ccc(N(CC)CC)cc2)cc[n+]1N=Cc1ccc(N(CC)CC)cc1 [1,3-bis[[p-diethylamino)benzylidene]amino]-2-ethyl-imidazolium chloride] | 0.75 | – | – |
| CCCCc1n(N=Cc2ccc(N(C)C)cc2)cc[n+]1N=Cc1ccc(N(C)C)cc1.[Cl-] [2-butyl-1,3-bis[[p-(dimethylamino)benzylidene]amino]imidazolium chloride] | < 0.25 | – | – |
| Cc1n(N=Cc2ccc(N(C)C)cc2)cc[n+]1N=Cc1ccc(N(C)C)cc1 [drawing 12, 1,3-bis[[p-(dimethylamino)benzylidene]amino]-2-methylimidazolium salts] | – | 80 to 156 | 1.6 |
| Cc1n(N=Cc2ccc(N(C)C)cc2)cc[n+]1N=Cc1ccc(N(C)C)cc1 [drawing 13, 1,3-bis[[(p-dimethylamino)benzylidene]amino]-2-methylimidazolium acetate] | 0.85 | – | – |
